Experimental data as given in US11918662B2, “Heterocyclic compounds and imaging agents for imaging huntingtin protein” (CHDI Foundation, Inc., priority 2020, dated 2024).

What follows are molecules tested against T1, MBP-HTT(1-89)Q46-His(6×) (“Exon1-Q46”) protein aggregates (Homo sapiens, UniProt P42858, INS38QQQQQQQQQQQQQQQQQQQQQQQQQ) (assay: Exon1-Q46 Radioligand Binding Assay). Details: displacement of 0.3 nM [3H3-methyl]-5-((5-methoxypyridin-2-yl)methoxy)-2-(pyrazin-2-yl)benzo[d]oxazole from 1 μM aggregated Exon1-Q46, 60 minutes at 37° C.; read-out: Potency Range (IC50).
T1 construct: MBP-HTT(1-89)Q46-His(6×); His(6×) (C); made in house
Procedure: Exon1-Q46 Radioligand Binding Assay
For experiments 30 μM MBP-Exon1-Q46 was incubated with 150 μg/mL thrombin in assay buffer (150 mM NaCl, 50 mM Tris pH 8.0) and 2 mM CaCl2 for 16 hours at 37° C. Aggregated Exon1-Q46 was pelleted by centrifugation for 5 minutes at 13,000 rpm in a bench top centrifuge and re-dissolved in the same volume of assay buffer. […] For the RBA, Q46 protein aggregates and test compounds were pre-incubated in assay buffer for 20 minutes at room temperature, in 100 μL/well in a 96-well plate (pp, round bottom). Then, ligand was added in 50 μL/well and incubated for 60 minutes at 37° C. Final assay concentrations were […] test compound, 1 μM Exon1-Q46 protein (equivalent monomer concentration) and 0.3 nM ligand [^3H3-methyl]-5-((5-methoxypyridin-2-yl)methoxy)-2-(pyrazin-2-yl)benzo[d]oxazole. Samples were transferred onto GF/B filter plates and washed 2× with 200 μL PBS using a Filtermate Harvester. After drying filter plates for 1 hour at 55° C., the back of the plates were sealed with foil and 30 μL/well scintillation fluid (Packard MicroScint 40) added, incubated for 15 minutes in the dark and counted in a MicroBeta reader. […] IC50 values were determined with a sigmoidal inhibition model with four variables (top, bottom, slope, IC50) in a global fit using the normalized replicate data.

T1 sequence (P42858 with tags, fused parts or gaps with the stated changes limits assumed): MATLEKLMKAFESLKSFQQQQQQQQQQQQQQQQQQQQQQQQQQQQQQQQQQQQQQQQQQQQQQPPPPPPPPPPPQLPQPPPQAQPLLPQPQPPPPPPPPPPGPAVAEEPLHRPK

With `Cc1nn(C)c2c1c(=O)n(CCC(=O)Nc1ccc(F)cc1F)c1cc(F)ccc21` [Example 9-26] as the molecule, how does the IC50 read?
The IC50 was less than 100 nM.

How did the IC50 turn out when `COc1ccc(NC(=O)CCCn2c(=O)c3nccn3c3ccc(F)cc32)nc1` [Example 5-14] was run?
Its IC50 is less than 100 nM.

For `O=C(CCn1c(=O)c2cccn2c2ccc(F)cc21)N1CCC(C(F)(F)F)CC1` [Example 3-42], which IC50 is on record?
Its IC50 is less than 100 nM.

How did the IC50 turn out when `COc1cc2c(cn1)CCN(C(=O)CCn1c(=O)c3cccn3c3ccc(F)cc31)C2` [Example 3-48] was run?
The IC50 was less than 100 nM.

How did the IC50 turn out when `O=C(CCCn1c(=O)c2cccn2c2ccc(F)cc21)NCc1ccccc1` [Example 1-15] was run?
The IC50 was less than 100 nM.

How did the IC50 turn out when `C[C@@H]1CN(C(=O)CCn2c(=O)c3cccn3c3ccc(F)cc32)C[C@H]1C` [Example 1-49] was run?
The IC50 was less than 100 nM.

Which IC50 does the source give for `COc1ccc(NC(=O)CCn2c(=O)c3cccn3c3ccc(F)cc32)cc1` [Example 3-3] here?
The IC50 was less than 100 nM.

For `COc1ccc(NC(=O)CCCn2c(=O)c3cccn3c3cccnc32)nc1` [Example 4-9], which IC50 is on record?
Its IC50 is less than 100 nM.

For `COc1ccnc(NC(=O)CCCn2c(=O)c3cccn3c3ccncc32)c1` [Example 2-4], which IC50 is on record?
The IC50 was less than 100 nM.

For `COc1ccnc(NC(=O)CCCn2c(=O)c3cccn3c3ccc(F)cc32)c1` [Example 1-44], which IC50 is on record?
Its IC50 is less than 100 nM.

`CN(C)C(=O)CCn1c(=O)c2cccn2c2ccc(F)cc21` [Example 3-36] was tested. Which IC50 did it give?
Its IC50 is less than 100 nM.

How did the IC50 turn out when `COC1CCN(C(=O)CCCn2c(=O)c3cccn3c3ccc(F)cc32)C1` (centres unmarked) [Example 1-36] was run?
Its IC50 is less than 100 nM.

With `O=C(CCCn1c(=O)c2cccn2c2ccc(F)cc21)Nc1cccnc1` [Example 1-24] as the molecule, how does the IC50 read?
The IC50 was less than 100 nM.

With `COc1ccc(C(=O)NCCn2c(=O)c3cccn3c3ccc(F)cc32)nc1` [Example 14-2] as the molecule, how does the IC50 read?
The IC50 was less than 100 nM.

Which IC50 does the source give for `O=C(CCn1c(=O)c2cccn2c2ccc(F)cc21)N1CCc2cccnc2C1` [Example 3-56] here?
The IC50 was less than 100 nM.

Which IC50 does the source give for `Cc1ccc(NC(=O)CCCn2c(=O)c3cccn3c3ccncc32)cc1` [Example 2-1, 4-(7-Oxo-2,8,11-triazatricyclo[7.4.0.0^2,6]trideca-1(9),3,5,10,12-pentaen-8-yl)-N-(p-tolyl)butanamide] here?
The IC50 was less than 100 nM.

With `COc1ccc(NC(=O)CCn2c(=O)c3cnn(C)c3c3ccc(F)cc32)nc1` [Example 9-23] as the molecule, how does the IC50 read?
Its IC50 is less than 100 nM.

Which IC50 does the source give for `COc1ncccc1NC(=O)CCn1c(=O)c2ccnn2c2ccc(F)cc21` [Example 8-3] here?
Its IC50 is less than 100 nM.

`COc1ccccc1NC(=O)CCn1c(=O)c2cccn2c2ccc(F)cc21` [Example 3-16] was tested. Which IC50 did it give?
Its IC50 is less than 100 nM.

How did the IC50 turn out when `O=C(CCn1c(=O)c2cccn2c2ccc(F)cc21)N1CCCCC1` [Example 3-1, 7-Fluoro-5-[3-oxo-3-(piperidin-1-yl)propyl]-4H,5H-pyrrolo[1,2-a]quinoxalin-4-one] was run?
Its IC50 is less than 100 nM.

How did the IC50 turn out when `O=C(CCn1c(=O)c2cccn2c2ccc(F)cc21)N1CCCc2ccccc21` [Example 3-47] was run?
Its IC50 is less than 100 nM.

For `O=C(CCCn1c(=O)c2cccn2c2cccnc21)NC1CCCCCC1` [Example 4-10], which IC50 is on record?
The IC50 was less than 100 nM.

For `Cn1ncc2c(=O)n(CCC(=O)Nc3ccc(F)cc3F)c3cc(F)ccc3c21` [Example 9-18, N-(2,4-Difluorophenyl)-3-(7-fluoro-1-methyl-4-oxo-pyrazolo[4,3-c]quinolin-5-yl)propanamide], which IC50 is on record?
Its IC50 is less than 100 nM.

Which IC50 does the source give for `O=C(CCCn1c(=O)c2cccn2c2ccc(F)cc21)NC1CCCC1` [Example 1-28] here?
The IC50 was 100 to 500 nM.

How did the IC50 turn out when `COc1cccc(NC(=O)CCn2c(=O)c3cccn3c3ccc(F)cc32)n1` [Example 3-7] was run?
The IC50 was less than 100 nM.

With `COc1ccc(NC(=O)CCCn2c(=O)c3cccn3c3ccc(F)cc32)nc1` [Example 1-43] as the molecule, how does the IC50 read?
Its IC50 is less than 100 nM.

Which IC50 does the source give for `O=C(CCn1c(=O)c2cccn2c2ccc(F)cc21)Nc1ccncc1` [Example 3-18] here?
The IC50 was less than 100 nM.

For `O=C(CCn1c(=O)c2cccn2c2ccc(F)cc21)NC1CCCC1` [Example 3-37], which IC50 is on record?
Its IC50 is less than 100 nM.

`COc1cccc(NC(=O)CCCn2c(=O)c3cccn3c3ncccc32)c1` [Example 4-3] was tested. Which IC50 did it give?
Its IC50 is less than 100 nM.

Which IC50 does the source give for `O=C(CCCn1c(=O)c2cccn2c2ccc(F)cc21)N1CCC(C(F)(F)F)CC1` [Example 1-37] here?
The IC50 was less than 100 nM.

How did the IC50 turn out when `O=C(CCn1c(=O)c2cccn2c2ccc(F)cc21)Nc1ccc(Cl)cc1` [Example 3-26] was run?
Its IC50 is less than 100 nM.

Which IC50 does the source give for `Cc1ccc(NC(=O)CCCn2c(=O)c3cccn3c3cccnc32)cc1` [Example 4-6] here?
The IC50 was less than 100 nM.
